Measured values: patent publication US20250170155A1, “NUCLEOSIDE DERIVATIVES AND PRODRUGS THEREOF HAVING VIRAL GROWTH INHIBITORY ACTION” (Shionogi & Co., Ltd., priority 2021, published 2025)
Where two headings read alike, the source gives them in different places.

Columns and labels:
Type in all cases: cell-based
[1] = Cytotoxic activity evaluation, RPMI 2650 cells; conditions: human, no virus, 3 to 6 days
Experimental: (§1) <Operation Procedure (Cytotoxic Activity Evaluation)>
(§2) On the day before the compound treatment, cells prepared to an appropriate number were seeded in a 96 well plate at 100 μL/well. Thereafter, the cells were cultured in a CO2 incubator at 37° C. • Preparation of 2 μg/mL trypsin/0.5% BSA/MEM
(§3) Same as those described in the section for evaluation of antiviral activity • Dilution and dispensing of test substance
(§4) A 3- to 5-fold serial dilution series of test substances was prepared in DMSO in advance, and diluted with 2 μg/mL trypsin/0.5% BSA/MEM so that the final concentration of DMSO was 0.5% (100 to 200 μL/well). The cells were washed with MEM, and then cultured in a test substance-added medium for 3 to 6 days. Double measurement was performed for each drug. • Dispensing of resazurin solution
(§5) Same as those described in the section for evaluation of antiviral activity • Measurement of fluorescence intensity
(§6) Same as those described in the section for evaluation of antiviral activity
(§7) [formula] [formula] • Calculation of Selectivity Index (SI)

[2] = system: influenza virus (A/WSN/33 (H1N1) strain); assay: CPE suppression effect confirmation test (influenza virus, RPMI 2650 cells), antiviral activity; conditions: for EC50: read-out: Influenza EC50 (50% CPE inhibitory concentration), A/WSN/33 (H1N1), 3 to 6 days
[3] = system: SARS-CoV-2 (hCoV-19/Japan/TY/WK-521/2020 strain); assay: CPE suppression effect confirmation test (SARS-CoV-2, Vero E6/TMPRSS2 cells), antiviral activity; conditions: for EC50: read-out: SARS-CoV-2 EC50 (50% CPE inhibitory concentration), 3 days culture
[4] = Cytotoxic activity evaluation, Vero E6/TMPRSS2 cells; conditions: African green monkey, no virus
Experimental: as §1
(§8) A 3- to 5-fold serial dilution series of test substances was prepared in DMSO, diluted with 2% FBS/MEM so that the concentration of DMSO was 2%, and dispensed into a 96 well plate (50 μL/well, DMSO final concentration 0.5%). • Dilution and dispensing of cells
(§9) The cells prepared to an appropriate number were seeded at 100 μL/well to the plate into which the test substance was dispensed. Thereafter, the cells were cultured in a CO2 incubator at 37° C. for 3 days. • Dispensing of CellTiter-Glo (registered trademark) 2.0 Reagent
(§10) Same as those described in the section for evaluation of antiviral activity • Measurement of luminescence intensity
as §6
(§11) Excel, TIBCO Spotfire, or a program having equivalent calculation processing capability based on the following calculation formula.

[5] = system: RPMI 2650 cells; assay: Cytotoxic activity evaluation, RPMI 2650 cells; conditions: read-out: Influenza test CC50 (50% cell proliferation inhibitory concentration), no virus, 3 to 6 days
Experimental: as §1, §2, §3, §4, §5, §6, §7

[6] = system: SARS-CoV-2 (hCoV-19/Japan/TY/WK 521/2020 strain); assay: microbe, parasite or virus in culture; conditions: HEK293T/ACE2-TMPRSS2 cells; for EC50: Severe acute respiratory syndrome coronavirus 2, HEK-293T, 72 h, read-out: SARS-CoV-2 EC50 (50% CPE inhibitory concentration), 293T-AT, 3 days culture
[7] = system: Vero E6/TMPRSS2 cells; assay: Cytotoxic activity evaluation, Vero E6/TMPRSS2 cells; conditions: read-out: SARS-CoV-2 test CC50 (50% cell proliferation inhibitory concentration), no virus, 3 days
Experimental: as §1, §8, §9, §10, §6, §11

[8] = Cytotoxic activity evaluation, HEK293T/ACE2-TMPRSS2 cells; conditions: human, no virus
Experimental: as §1
A 3- to 5-fold serial dilution series of test substances was prepared in DMSO, diluted with 2% FIBS/MEM so that the concentration of DMSO was 2%, and dispensed into a 96 or 384/well well plate (50 μL/well or 40 μL/well, DMSO final concentration 0.5%). • Dilution and dispensing of cells
The cells prepared to an appropriate number were seeded at 100 μL/well or 40 μL/well to the plate into which the test substance was dispensed. Thereafter, the cells were cultured in a CO2 incubator at 37° C. for 3 days. • Dispensing of CellTiter-Glo (registered trademark) 2.0 Reagent
as §10, §6, §7

[9] = Severe acute respiratory syndrome coronavirus 2, VeroE6/TMPRSS2, 72 h

| SMILES | EC50 [2] | SARS-CoV-2 SI (Selectivity Index), 293T-AT [6] | EC50 [6] | CC50 at 3 days [8] | other results |
| --- | --- | --- | --- | --- | --- |
| Nc1ncnn2c([C@@H]3N[C@H](CO)[C@@H](O)[C@H]3O)cnc12 [Compound I-001] | 1.05 µM |  |  |  | CC50 [1]: 70.5 µM; Influenza SI (Selectivity Index) [2]: 67.1; SARS-CoV-2 SI (Selectivity Index) [3]: <1.22; EC50 [3, 9]: > 0.8 µM; CC50 at 3 days [4]: 0.977 µM |
| Nc1ncnn2c([C@@H]3O[C@](F)(CO)[C@@H](O)C3(F)F)ccc12 [Compound I-008] | 7.01 µM |  |  |  | CC50 [5]: 432 µM |
| NC(=O)c1cc([C@@H]2N[C@H](CO)[C@@H](O)[C@H]2O)n2ncnc(N)c12 [Compound I-010] |  | 1050 | 0.0395 µM |  | SARS-CoV-2 SI (Selectivity Index) [3]: 2488; EC50 [3, 9]: 0.18 µM; CC50 at 3 days [4]: 448 µM |
| N/C(=N\O)c1cc([C@@H]2N[C@H](CO)[C@@H](O)[C@H]2O)n2ncnc(N)c12 [Compound I-016] |  |  |  |  | EC50 [3]: 1.57 µM; CC50 [7]: > 500 µM |
| CC1(C)O[C@@H]2[C@H](O1)[C@@H](CO)N[C@H]2c1cc(/C=N/O)c2c(N)ncnn12 [Compound I-018] | 1.06 µM |  |  |  | CC50 [5]: > 500 µM |
| OC[C@H]1N[C@@H](c2ccc3c(NO)ncnn23)[C@H](O)[C@@H]1O [Compound I-020] | 20.2 µM |  |  |  | CC50 [5]: > 500 µM |
| Nc1ncnn2c([C@@H]3N[C@H](CO)[C@@H](O)[C@H]3O)cc(O)c12 [Compound I-022] | 105 µM |  |  |  | CC50 [5]: > 500 µM; EC50 [3]: 1.03 µM; CC50 [7]: 129 µM |
| Cl.Cl.Nc1ncnn2c([C@@H]3N[C@H](CO)[C@@H](O)[C@H]3O)cc(-c3c[nH]cn3)c12 [Compound I-023] | 0.983 µM |  |  |  | CC50 [1]: 51.8 µM; Influenza SI (Selectivity Index) [2]: 52.7; SARS-CoV-2 SI (Selectivity Index) [3]: 923; EC50 [3, 9]: 0.17 µM; CC50 at 3 days [4]: 157 µM |
| CC(C)(C)OC(=O)N1[C@H](CO)[C@@H](O)[C@@H](O)[C@@H]1c1cc(N)c2c(N)ncnn12 [Compound I-024] | 47.9 µM |  |  |  | CC50 [5]: 310 µM; EC50 [3]: 49.3 µM; CC50 [7]: 189 µM |
| Cn1ccc(-c2cc([C@H]3[C@@H]4OC(C)(C)O[C@@H]4[C@@H](CO)N3C(=O)OC(C)(C)C)n3ncnc(N)c23)n1 [Compound I-030] | 7.65 µM |  |  |  | CC50 [5]: > 500 µM |
| Cl.Nc1ncnn2c([C@@H]3N[C@H](CO)[C@@H](O)[C@H]3O)cc(-c3nc[nH]n3)c12 [Compound I-037] | > 4 µM |  |  |  | CC50 [1]: 6.81 µM; Influenza SI (Selectivity Index) [2]: <1.70; SARS-CoV-2 SI (Selectivity Index) [3]: 8.63; EC50 [3, 9]: 1.97 µM; CC50 at 3 days [4]: 17 µM |
| CC(O)c1cc([C@@H]2N[C@H](CO)[C@@H](O)[C@H]2O)c2ncnc(N)n12 (stereo partly drawn) [Compound I-038] | 4.41 µM |  |  |  | CC50 [5]: > 500 µM |
| N#C[C@@]1(c2c[nH]c3c(N)ncnc23)O[C@H](CO)[C@@H](O)[C@H]1O [Compound I-048] |  |  |  |  | EC50 [3]: 40.9 µM; CC50 [7]: > 500 µM |
| Cl.N/C(=N\O)c1cc([C@@H]2N[C@H](CO)[C@@H](O)[C@H]2O)n2nc(F)nc(N)c12 [Compound I-056] |  |  |  |  | SARS-CoV-2 SI (Selectivity Index) [3]: >17.7; EC50 [3, 9]: 28.2 µM; CC50 at 3 days [4]: > 500 µM |
| Cl.NC(=O)c1cc([C@@H]2N[C@H](CO)[C@@H](O)[C@H]2O)n2nc(F)nc(N)c12 [Compound I-057] |  |  |  |  | SARS-CoV-2 SI (Selectivity Index) [3]: 434; EC50 [3, 9]: 0.131 µM; CC50 at 3 days [4]: 56.8 µM |
| C#CCNC(=O)c1cc([C@@H]2N[C@H](CO)[C@@H](O)[C@H]2O)n2ncnc(N)c12 [Compound I-075] |  |  |  |  | SARS-CoV-2 SI (Selectivity Index) [3]: >185; EC50 [3, 9]: 2.7 µM; CC50 at 3 days [4]: > 500 µM |

| SMILES | EC50 [2] | SARS-CoV-2 SI (Selectivity Index), 293T-AT [6] | EC50 [6] | CC50 at 3 days [8] | other results |
| --- | --- | --- | --- | --- | --- |
| CN1[C@H](CO)[C@@H](O)[C@@H](O)[C@@H]1c1cc(C(N)=O)c2c(N)ncnn12.Cl [Compound I-076] |  |  |  |  | SARS-CoV-2 SI (Selectivity Index) [3]: >30.7; EC50 [3, 9]: 16.3 µM; CC50 at 3 days [4]: > 500 µM |
| CCn1ccc(-c2cc([C@@H]3N[C@H](CO)[C@@H](O)[C@H]3O)n3ncnc(N)c23)n1.Cl [Compound I-081] |  | 222 | 1.38 µM | 306 µM |  |
| Cl.Nc1nc(F)nn2c([C@@H]3N[C@H](CO)[C@@H](O)[C@H]3O)cc(-c3c[nH]nn3)c12 [Compound I-082] |  | 37.8 | 3.97 µM | 150 µM |  |
| Cl.Nc1ncnc2c([C@@H]3N[C@H](CO)[C@@H](O)[C@H]3O)cc(-c3c[nH]nn3)n12 [Compound I-083] |  | 8.71 | 5.2 µM | 45.3 µM |  |
| Cc1cc(-c2cc([C@@H]3N[C@H](CO)[C@@H](O)[C@H]3O)n3nc(F)nc(N)c23)[nH]n1.Cl [Compound I-084] |  | 48.2 | 5.33 µM | 257 µM |  |
| Cn1ncc(-c2cc([C@@H]3N[C@H](CO)[C@@H](O)[C@H]3O)n3ncnc(N)c23)n1 [Compound I-086] |  | 19.4 | 11.6 µM | 225 µM |  |
| Cl.Nc1ncnn2c([C@@H]3N[C@H](CO)[C@@H](O)[C@H]3O)cc(-c3cc(O)ccn3)c12 [Compound I-087] |  | 3.97 | 18.9 µM | 75 µM |  |
| Cc1nc(-c2cc([C@@H]3N[C@H](CO)[C@@H](O)[C@H]3O)n3ncnc(N)c23)n[nH]1 [Compound I-088] |  | >16.4 | 30.4 µM | > 500 µM |  |
| Cc1nc(N)c2c(C(N)=O)cc([C@@H]3N[C@H](CO)[C@@H](O)[C@H]3O)n2n1.Cl [Compound I-089] |  | >14.2 | 35.3 µM | > 500 µM |  |
| Cc1cnc(-c2cc([C@@H]3N[C@H](CO)[C@@H](O)[C@H]3O)n3ncnc(N)c23)o1.Cl [Compound I-090] |  | >13.1 | 38.1 µM | > 500 µM |  |
| Cc1c[nH]c(-c2cc([C@@H]3N[C@H](CO)[C@@H](O)[C@H]3O)n3ncnc(N)c23)n1 [Compound I-091] |  | >2.29 | 218 µM | > 250 µM |  |
| Cl.Nc1ncnn2c([C@@H]3N[C@H](CO)[C@@H](O)[C@H]3O)cc(-c3ccn(CCO)n3)c12 [Compound I-092] |  | >1577 | 0.317 µM | > 500 µM |  |
| CCn1cc(-c2cc([C@@H]3N[C@H](CO)[C@@H](O)[C@H]3O)n3ncnc(N)c23)nn1.Cl [Compound I-093] |  | >2.37 | 211 µM | > 500 µM |  |
| Cl.Nc1nc(F)nn2c([C@@H]3N[C@H](CO)[C@@H](O)[C@H]3O)cc(-c3ncc[nH]3)c12 [Compound I-094] |  | >10.2 | 49.1 µM | > 500 µM |  |
| Cl.[2H]C([2H])(O)[C@H]1N[C@@H](c2cc(C(N)=O)c3c(N)ncnn23)[C@H](O)[C@@H]1O [Compound I-095] |  | 2769 | 0.0228 µM | 62.9 µM |  |
